Data from patent US20130345234A1, “FGFR AND LIGANDS THEREOF AS BIOMARKERS FOR BREAST CANCER IN HR POSITIVE SUBJECTS” (priority 2011, published 2013).

Key:
tumor xenograft models = assay: Antitumor activity in tumor xenograft models in athymic mice; assay type: in vivo; conditions: administered orally, all models tested
Protocol: (§1) Inhibition was observed up to 24 hours in certain models.

[1] = tested on: FGFR downstream-signaling proteins AKT and ERK; assay: Tyrosine phosphorylation of FGFR downstream-signaling proteins in xenograft tumors; assay type: in vivo, mice; conditions: following a single oral dose
Protocol: as §1

[2] = Phase 2 trial of dovitinib: adverse events; assay type: in vivo, human; conditions: as of January 2011
Protocol: Patient selection was performed according to FISH/CISH for FGFR1 (cut-off≧6 gene copies). […] The primary endpoint was RECIST best overall response rate in pts with measurable disease per external radiology review.
Inclusion Criteria: • 1. Patients have histological confirmation of breast carcinoma with a clinical diagnosis of IBC based on presence of inflammatory changes in the involved breast, including diffuse erythema and edema (peau d orange), with or without an underlying palpable mass involving the majority of the skin of the breast. Pathological evidence of dermal lymphatic invasion should be noted but is not required for diagnosis. • 2. Patients have stage IV disease with local or distant relapse • 3. Patients have negative HER2 expression by IHC (defined as 0 or 1+), or FISH (fluorescence in situ hybridization). If HER2 is 2+, negative HER2 expression must be confirmed by FISH. • 4. Patients are able to swallow and retain oral medication. • 5. Patients have ECOG performance status 0-2. • 6. Patients have received up to 3 standard chemotherapies for metastatic disease and have relapsed. • 7. Patients have ability and willingness to sign written informed consent. • 8. Patients are 18 years of age or older. • 9. Female patients of childbearing potential (A person not free from menses>2 years or not surgically sterilized) must be willing to use two adequate barrier methods of contraception to prevent pregnancy or agree to abstain from heterosexual activity throughout the study. • 10. Female patients of childbearing potential must have negative serum pregnancy test. • 11. If Patients have been treated with anti-VEGF agents, such as Bevacizumab, last dose must be >4 weeks. • 12. Patients have biopsy tissue of the metastatic disease (including chest wall or regional nodes) available (paraffin blocks or up to 20 unstained slides), if no biopsy tissue available, a biopsy (or thoracentesis if patient has pleural effusion only) of the metastatic disease will be performed to confirm the diagnoses.
Exclusion Criteria: • 1. Patients are receiving concurrent anti-cancer therapy (chemotherapy, immunotherapy, radiation therapy and biological therapy) while taking study medication. • 2. Abnormal liver functions consisting of any of the following: a) Serum bilirubin>/=1.5×ULN, b) AST and ALT>/=2.5×ULN, (for patients with known liver metastasis, AST and ALT</=5×ULN is allowed), ANC<1.5. • 3. Patients have an active infection and require IV or oral antibiotics. • 4. Impaired cardiac function or clinically significant cardiac diseases, including any of the following: a) History or presence of serious uncontrolled ventricular arrhythmias or presence of atrial fibrillation; b) Clinically significant resting bradycardia (<50 beats per minute); c) LVEF<45% assessed by 2-D echocardiogram (ECHO) or Multiple gated acquisition scanning (MUGA); d) Any of the following within 6 months prior to study entry: myocardial infarction (MI), severe/unstable angina, Coronary Artery Bypass Graft (CABG), Congestive Heart Failure (CHF), Cerebrovascular Accident (CVA), Transient Ischemic Attack (TIA), Pulmonary Embolism (PE); e) Uncontrolled hypertension defined by an SBP>150 and/or a DBP>100 mm Hg with or without anti-hypertensive medication. • 5. History of gastrointestinal disorders (medical disorders or extensive surgery) which may interfere with the absorption of the study drug. • 6. Patients have a concurrent disease or condition that would make them inappropriate for study participation, or any serious medical disorder that would interfere with patients' safety. • 7. Patients with only locally or regionally confined disease without evidence of metastatic disease.

breast cancer cells = assay: Model of disseminated disease: liver colonization from a subcutaneous xenograft primary; assay type: in vivo; conditions: mice; subcutaneous (SC) xenograft primary; oral treatment
Protocol: as §1

CN1CCN(c2ccc3nc(-c4c(N)c5c(F)cccc5[nH]c4=O)[nH]c3c2)CC1 [dovitinib, 4-amino-5-fluoro-3-[6-(4-methylpiperazin-1-yl)-1H-benzimidazol-2-yl]-1H-quinolin-2-one]
antitumor activity in tumor xenograft models (tumor xenograft models): anti-tumor responses, ranging from growth inhibition and stasis to regression | duration of inhibition of AKT and ERK phosphorylation ([1]; certain models): up to 24 hours | tyrosine phosphorylation of AKT and ERK ([1]; xenograft tumors): inhibited | adverse event: asthenia, Group 3 ([2]; Group 3): 17% | adverse event: diarrhea, Group 3 ([2]; Group 3): 6% | adverse event: nausea, Group 3 ([2]; Group 3): 5% | adverse event: vomiting ([2]; all grades, 77 patients with data, 500 mg once daily, 5-day on/2-day off): 75% | adverse event: asthenia ([2]; all grades): 61% | adverse event: diarrhea ([2]; all grades): 72% | adverse event: nausea ([2]; all grades): 62% | adverse event: vomiting, grade 3 [Group 3] ([2]; grade 3): 6% | colonization of breast cancer cells in the livers (breast cancer cells): significantly reduced
